Laboratory results as given in US20130273557A1 (priority 2010, published 2013).

Experiments:
[1] = test system: leak conductance of urea-treated SMVs; test: Patch clamp recordings of urea-treated SMVs (F1 removed); type: biochemical, rat
Experimental: F1 subunits were removed from SMVs by adapting previously-established methods. 60 mg SMV's/1 mL IB was treated with 1 mL of […] for 5 min. on ice, then centrifuged at 21000×g for 10 min. The pellet was washed 3× in IB (centrifugation at 21000×g for 10 min) and stored in IB.
Giga-ohm seals were formed on SMVs using pipettes and solutions as above. Peak membrane conductance was measured as described above.

[2] = test system: C2C12 myoblasts; test: OCR and ECAR in C2C12 myoblasts (Seahorse); type: cell-based, mouse; details: dexpramipexole 30 μM or PSI 30 nM alone, 18 hr
Experimental: (§1) The C2C12 mouse myoblast cell line (ATCC, Manasses, Va.) was cultured in Dulbecco's Modified Eagle Medium (DMEM; Gibco®; Carlsbad, Calif.) supplemented with 10% fetal bovine serum (FBS), 2 mM GlutaMax® and penicillin/streptomycin. Cells were maintained in 10% CO2 humidified at 37° C.
OCR and ECAR were measured with a Seahorse® XF24 Flux Analyzer (Seahorse Bioscience, Billerica, Mass.). For PSI experiments on C2C12 cells, basal values were assessed in non-buffered DMEM Assay Medium without glucose, glutamine or pyruvate, and supplemented with 25 mM glucose, 6 mM Glutamax®, and 1 mM sodium pyruvate. […] Succinate and ADP stocks were diluted to 10× concentrations in pre-warmed XF MAS buffer, pH 7.2. Using a Plate Prep Station (Seahorse Bioscience, Billerica, Mass.), cells were washed with 1 mL buffer and were brought to 607 μL with buffer. […] Raw basal OCR and ECAR values were normalized as a percent of the mean control value for each individual experiment. Normalized data from experiments were expressed as mean±SEM.

[3] = test system: SH-SY5Y neuroblastoma cells; test: PSI-induced cell death in SH-SY5Y cells (CellTiter-Blue); details: 24 hr exposure to PSI at 150 or 650 nM
Experimental: Data shown represent mean±SEM. […] Bar graphs represent normalized mean±SEM. Cell viability was measured by CellTiter-Blue®; n=41-98 wells/condition.
Undifferentiated SH-SY5Y human neuroblastoma cells (ATCC, Manasses, Va.) were maintained in humidified 5% CO2 in 1:1 Ham's F12 nutrient mixture with Glutamax® and Minimal Essential Medium with L-glutamine (MEM-Alpha), 10% FBS, and 1% penicillin/streptomycin (Gibco® Invitrogen Corp., Carlsbad, Calif.).
(§2) Cellular viability was measured using CellTiter-Blue® (Promega Corp., Madison, Wis.) in black-walled optical imaging multiwell plates, and cellular ATP was measured using the CellTiter-Glo® (Promega Corp., Madison, Wis.) luminescence assay in opaque-walled multiwell plates according to the manufacturer's protocol.

[4] = test system: C2C12 cells; type: cell-based, mouse
Experimental: (§3) Data are presented as a percentage of the vehicle-treated control ±SEM (n=10 wells at each concentration). […] Experiments commenced 18 hr. after addition of drug. […] Data are presented as a percentage of the vehicle-treated control±SEM (n=14-17 wells for each group).
as §1, §2

[5] = test system: C2C12 cells
Experimental: as §3, §1, §2

[6] = target: T1, intermediate- and large-conductance channel activity of PSI-mitochondria (Rattus norvegicus, UniProt P19511+Q06647); test: Patch clamp recording of brain-derived PSI-mitochondria; type: biochemical; details: subcortex mitochondria vs control animals
T1 sequence (P19511 43-256): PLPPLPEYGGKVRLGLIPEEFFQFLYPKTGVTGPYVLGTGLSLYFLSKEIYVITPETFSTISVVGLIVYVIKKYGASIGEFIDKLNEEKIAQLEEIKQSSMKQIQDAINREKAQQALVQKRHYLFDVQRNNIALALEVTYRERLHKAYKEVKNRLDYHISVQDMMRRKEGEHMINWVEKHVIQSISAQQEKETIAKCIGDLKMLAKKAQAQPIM
T1 sequence (Q06647 24-213): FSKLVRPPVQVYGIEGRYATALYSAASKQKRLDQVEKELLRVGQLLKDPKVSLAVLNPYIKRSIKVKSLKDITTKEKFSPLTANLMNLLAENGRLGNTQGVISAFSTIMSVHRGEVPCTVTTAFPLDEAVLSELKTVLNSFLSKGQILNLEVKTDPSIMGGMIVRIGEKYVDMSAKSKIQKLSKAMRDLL
Experimental: Isolation of Brain-derived Mitochondria. Standard techniques were adapted for isolating brain-derived mitochondria. Mitochondria were stored in isolation buffer (IB) at −80° C. For PSI-mitochondria, male Sprague-Dawley rats (6 wo, ˜200 gm, 3-6 rats/group/condition, at least 2 different preparations/experimental paradigm) were injected with the ubiquitin proteasome inhibitor Z-Ile-Glu(OtBu)-Ala-Leu-al (PSI; Peptides International Inc, Kentucky, USA; s.c. every other day for 1 or 2 weeks; 6.0 mg/kg PSI in DMSO, or with DMSO, 200 μL/rat), and mitochondria isolated and stored as above.
Reagents were rapidly perfused into the recording chamber.

[7] = test system: digitonin-treated cortical neurons; test: ATP production following ADP pulse in digitonin-treated cortical neurons; type: cell-based, rat; details: dexpramipexole 30 μM
[8] = target: complex V (F1FO ATPase) (Rattus norvegicus, UniProt P19511+Q06647); test: ATP hydrolysis in SMVs, luciferin-luciferase assay; type: biochemical; parameters: from tissue; host or cells: rat brain mitochondria, lubrol-insoluble submitochondrial vesicles (SMVs); details: in these assays (NADH and luciferase)
Description: 3 wells were used for each condition, repeated at least 3× on different SMV isolations.

[9] = test system: models of cell death and NDDs; details: non-dopaminergic mechanism; cited from earlier work
[10] = test system: calcium (Ca2+)-induced membrane currents in rat liver mitoplasts; details: cited from earlier work

Nc1ncnc2c1ncn2[C@@H]1O[C@H](COP(=O)(O)OP(=O)(O)OP(=O)(O)O)[C@@H](O)[C@H]1O [ATP, adenosine triphosphate, reference compound]
leak conductance after removal of F1 [1]: still very effectively decreased the leak conductance

Z-Ile-Glu(OtBu)-Ala-Leu-H [PSI, reference compound]
ECAR [2]: very significant increase in ECAR
OCR [2]: did not display a significant change in OCR
cell viability [3]: significant decreases in cell viability
ATP levels [4]: neither ATP levels nor cell viability (FIG. 5b) were significantly affected
concentrations reducing cellular viability ([5]; 18 hr exposure): > 60 nM
cell viability ([5]; dexpramipexole 30 μM or PSI 30 nM, 18 hr, relative to control): neither ATP levels nor cell viability (FIG. 5b) were significantly affected
intermediate- and large-conductance mitochondrial ion channel activity after repeated pre-treatment of rats [6]: significant increase

antimycin A [reference compound]
initial slope of ATP synthesis following an ADP pulse [7]: significantly reduced
maximal ATP levels [7]: significantly reduced

CC[C@H]1/C=C/C=C/C[C@@H](C)[C@H](O)[C@@](C)(O)C(=O)[C@@H](C)[C@H](O)[C@@H](C)C(=O)[C@@H](C)[C@H](O)[C@@H](C)/C=C/C(=O)O[C@@H]2[C@H](C)[C@H](CC1)O[C@]1(CC[C@H](C)[C@H](C[C@@H](C)O)O1)[C@H]2C [oligomycin, reference compound]
ATP hydrolysis [8]: effectively inhibited ATP hydrolysis

CCCN[C@H]1CCc2nc(N)sc2C1 [pramipexole, (6S)-4,5,6,7-tetrahydro-N6-propyl-2,6-benzothiazole-diamine, reference compound]
protective concentrations [9]: ≥ 10 µM
Ca2+-induced membrane currents [10]: inhibit
